Experimental findings from PubChem BioAssay AID248 (DTP/NCI, 2004) are described below.

“And” between values parts separate entries of the source, which are not always exact repeats. Identical values can stand only once. Inconclusive results and toxic doses are left out.

This experiment concerns L1210 leukemia ip in BDF1 mice, survival T/C. The experiment is described as follows: NCI In Vivo Anticancer Drug Screen. Data for tumor model L1210 Leukemia (intraperitoneal) in B6D2F1 (BDF1) mice. To be noted: endpoint: mean survival time, higher = longer survival. Summed up: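 Antitumor effect is assessed in tumor-bearing animals. Survival in the compound arm is compared with a vehicle-dosed control arm and expressed as their quotient.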

Setting [1] is: dose: 100.0 mg/kg/injection, schedule: Q04DX003 (ip), vehicle: saline.
The mark [2] stands for this setting: dose: 200.0 mg/kg/injection, schedule: Q04DX003 (ip), vehicle: saline.
[3] abbreviates: dose: 400.0 mg/kg/injection, schedule: Q04DX003 (ip), vehicle: saline.
[4] abbreviates: dose: 100.0 mg/kg/injection, schedule: Q01DX001 (ip), vehicle: saline.
Setting [5] is: dose: 100.0 mg/kg/injection, schedule: Q01DX009 (ip), vehicle: saline.
The mark [6] stands for this setting: dose: 200.0 mg/kg/injection, schedule: Q01DX009 (ip), vehicle: saline.
Setting [7] is: dose: 400.0 mg/kg/injection, schedule: Q01DX009 (ip), vehicle: saline.
Setting [8] is: dose: 100.0 mg/kg/injection, schedule: Q01DX009 (ip), vehicle: saline with Tween-80.
The mark [9] stands for this setting: dose: 200.0 mg/kg/injection, schedule: Q01DX009 (ip), vehicle: saline with Tween-80.
Where [10] appears, read: dose: 100.0 mg/kg/injection, schedule: Q04DX003 (ip), vehicle: saline with Tween-80.
Setting [11] is: dose: 200.0 mg/kg/injection, schedule: Q04DX003 (ip), vehicle: saline with Tween-80.
Where [12] appears, read: dose: 400.0 mg/kg/injection, schedule: Q04DX003 (ip), vehicle: saline with Tween-80.
Setting [13] is: dose: 100.0 mg/kg/injection, schedule: Q04DX003 (ip), vehicle: Klucel (hydroxypropylcellulose) (HPC).
Where [14] appears, read: dose: 200.0 mg/kg/injection, schedule: Q04DX003 (ip), vehicle: Klucel (hydroxypropylcellulose) (HPC).
Setting [15] is: dose: 50.0 mg/kg/injection, schedule: Q01DX009 (ip), vehicle: saline.
Setting [16] is: dose: 400.0 mg/kg/injection, schedule: Q01DX001 (ip), vehicle: other.

In the case of `Cc1cc(Cl)cc(Cl)c1OCC(=O)O`, the T/C is, setting by setting: (dose: 100.0 mg/kg/injection, schedule: Q04DX002 (ip), vehicle: Klucel (hydroxypropylcellulose) (HPC)) 98 % of control; (dose: 200.0 mg/kg/injection, schedule: Q04DX002 (ip), vehicle: Klucel (hydroxypropylcellulose) (HPC)) 95 % of control; (dose: 400.0 mg/kg/injection, schedule: Q04DX002 (ip), vehicle: Klucel (hydroxypropylcellulose) (HPC)) 95 % of control.
In the case of `C/C=C\CC(C(C)=O)C(=O)OCC` (stereo not given), the T/C reads like this: (dose: 75.0 mg/kg/injection, schedule: Q01DX009 (ip), vehicle: saline) 92 % of control; under setting [1], 105 % of control; (dose: 150.0 mg/kg/injection, schedule: Q01DX009 (ip), vehicle: saline) 92 % of control; under setting [2], 91 % of control; (dose: 300.0 mg/kg/injection, schedule: Q01DX009 (ip), vehicle: saline) 97 % of control; under setting [3], 104 % of control.
With `O=S(=O)(/C(Br)=C\c1ccccc1)c1ccccc1`, the T/C reads like this: under setting [4], 103 % of control; under setting [5], 104 % of control; under setting [1], 98 % of control; (dose: 200.0 mg/kg/injection, schedule: Q01DX001 (ip), vehicle: saline) 102 % of control; under setting [6], 110 % of control; under setting [2], 101 % of control. Besides, the T/C was 102 % of control (dose: 400.0 mg/kg/injection, schedule: Q01DX001 (ip), vehicle: saline); 98 % of control under setting [7]; 98 % of control under setting [3].
For `C1CCC2C(C1)CCCC2CCC1CCCC2CCCCC21` (stereo not given), the T/C is 95 % of control (dose: 50.0 mg/kg/injection, schedule: Q04DX002 (ip), vehicle: saline with Tween-80); 92 % of control (dose: 100.0 mg/kg/injection, schedule: Q04DX002 (ip), vehicle: saline with Tween-80); 89 % of control (dose: 200.0 mg/kg/injection, schedule: Q04DX002 (ip), vehicle: saline with Tween-80); 100 % of control (dose: 400.0 mg/kg/injection, schedule: Q04DX002 (ip), vehicle: saline with Tween-80).
`CCOC(=O)CCC(=O)c1cccc([N+](=O)[O-])c1`: the T/C is 98 % of control under setting [8]; 96 % of control under setting [9]; 96 % of control (dose: 400.0 mg/kg/injection, schedule: Q01DX009 (ip), vehicle: saline with Tween-80).
As to `O=C1C2(c3ccccc3)C(c3ccccc3)=C(c3ccccc3)C1(c1ccccc1)C1CC=CC12` (stereo not given), the T/C is, setting by setting: under setting [8], 98 % of control; under setting [10], 96 % of control; under setting [9], 100 % of control; under setting [11], 104 % of control; under setting [12], 96 % of control.
For `c1ccc(P(CCP(c2ccccc2)c2ccccc2)CCP(c2ccccc2)c2ccccc2)cc1`, the T/C by setting is: under setting [13], 91 % of control; under setting [14], 96 % of control; (dose: 400.0 mg/kg/injection, schedule: Q04DX003 (ip), vehicle: Klucel (hydroxypropylcellulose) (HPC)) 96 % of control.
Consider `CC(c1c[nH]c2ccccc12)C(N)C(=O)O` (stereo not given), for which the T/C runs as follows: under setting [1], 95 % of control and 93 % of control; under setting [2], 98 % of control and 92 % of control; under setting [3], 95 % of control and 97 % of control.
As for `Nc1nc(N)c(-c2ccc(Cl)c(Cl)c2)c(CCc2ccc(CNC(=O)c3cc(S(=O)(=O)F)ccc3Cl)cc2)n1`, the T/C is 97 % of control (dose: 100.0 mg/kg/injection, schedule: Q01DX001 (ip), vehicle: saline with Tween-80); 94 % of control (dose: 200.0 mg/kg/injection, schedule: Q01DX001 (ip), vehicle: saline with Tween-80); 94 % of control (dose: 400.0 mg/kg/injection, schedule: Q01DX001 (ip), vehicle: saline with Tween-80).
`CN=C(NC)c1ccc(Cl)c(Cl)c1`: the T/C runs as follows: under setting [13], 96 % of control; under setting [14], 98 % of control.
With `Nc1nc(N)c2cc(CNc3ccc(C(=O)NC(CC(=O)O)CC(=O)O)cc3)ccc2n1`, the T/C runs as follows: (dose: 6.25 mg/kg/injection, schedule: Q01DX009 (ip), vehicle: saline) 123 % of control; (dose: 6.3 mg/kg/injection, schedule: Q01DX009 (ip), vehicle: carboxymethylcellulose (CMC)) 167 % of control; (dose: 10.0 mg/kg/injection, schedule: Q01DX009 (ip), vehicle: other) 157 % of control; (dose: 12.5 mg/kg/injection, schedule: Q01DX009 (ip), vehicle: carboxymethylcellulose (CMC)) 152 % of control; (dose: 25.0 mg/kg/injection, schedule: Q01DX009 (ip), vehicle: carboxymethylcellulose (CMC)) 180 % of control; (dose: 25.0 mg/kg/injection, schedule: Q01DX009 (ip), vehicle: other) 158 % of control. In addition, the T/C (dose: 50.0 mg/kg/injection, schedule: Q01DX001 (ip), vehicle: saline) was 109 % of control; the T/C (dose: 50.0 mg/kg/injection, schedule: Q01DX009 (ip), vehicle: carboxymethylcellulose (CMC)) is 117 % of control; the T/C under setting [15] is 216 % of control; the T/C (dose: 100.0 mg/kg/injection, schedule: Q01DX001 (ip), vehicle: other) was 196 % of control; the T/C under setting [4] was 114 % of control; the T/C (dose: 100.0 mg/kg/injection, schedule: Q01DX009 (ip), vehicle: carboxymethylcellulose (CMC)) was 105 % of control. For the same molecule, the T/C (dose: 100.0 mg/kg/injection, schedule: Q01DX009 (ip), vehicle: other) was 101 % of control; the T/C under setting [5] is 103 % of control; the T/C (dose: 133.0 mg/kg/injection, schedule: Q01DX001 (ip), vehicle: other) is 175 % of control; the T/C (dose: 200.0 mg/kg/injection, schedule: Q01DX001 (ip), vehicle: other) was 208 % of control; the T/C (dose: 200.0 mg/kg/injection, schedule: Q01DX009 (ip), vehicle: carboxymethylcellulose (CMC)) was 88 % of control; the T/C (dose: 200.0 mg/kg/injection, schedule: Q01DX009 (ip), vehicle: other) was 86 % of control. Besides, the T/C by setting is: under setting [6], 97 % of control; (dose: 300.0 mg/kg/injection, schedule: Q01DX001 (ip), vehicle: other) 166 % of control; (dose: 300.0 mg/kg/injection, schedule: Q01DX001 (ip), vehicle: saline) 122 % of control; under setting [16], 107 % of control; (dose: 600.0 mg/kg/injection, schedule: Q01DX001 (ip), vehicle: saline) 152 % of control.
`Cc1cc(=S)[nH]c2ccccc12`: the T/C is, setting by setting: (dose: 75.0 mg/kg/injection, schedule: Q04DX003 (ip), vehicle: saline) 100 % of control; (dose: 150.0 mg/kg/injection, schedule: Q04DX003 (ip), vehicle: saline) 100 % of control; (dose: 300.0 mg/kg/injection, schedule: Q04DX003 (ip), vehicle: saline) 100 % of control.
In the case of `O=[N+]([O-])c1ccc(-c2cccc3ccccc23)c([N+](=O)[O-])c1`, the T/C runs as follows: (dose: 100.0 mg/kg/injection, schedule: Q01DX001 (ip), vehicle: carboxymethylcellulose (CMC)) 96 % of control; (dose: 400.0 mg/kg/injection, schedule: Q01DX001 (ip), vehicle: carboxymethylcellulose (CMC)) 91 % of control.
As to `CC(=O)Nc1ccc(Cl)cc1C(=O)c1ccc[nH]1`, the T/C runs as follows: under setting [15], 110 % of control; under setting [5], 104 % of control; under setting [1], 106 % of control; under setting [6], 103 % of control; under setting [2], 108 % of control; under setting [7], 98 % of control. Further, the T/C under setting [3] is 93 % of control.
On to `CC1=C(C)CC(c2ccccc2)C(C(=O)O)C1` (stereo not given), for which the T/C runs as follows: (dose: 176.0 mg/kg/injection, schedule: Q01DX001 (ip), vehicle: other) 100 % of control; (dose: 266.0 mg/kg/injection, schedule: Q01DX001 (ip), vehicle: other) 100 % of control; under setting [16], 101 % of control.
`CN(C)C(=O)c1cccc(NCc2ccc3nc(N)nc(N)c3c2)c1`: the T/C is 93 % of control (dose: 50.0 mg/kg/injection, schedule: Q01DX009 (ip), vehicle: saline with Tween-80); 96 % of control and 88 % of control under setting [8]; 97 % of control under setting [10]; 96 % of control under setting [9]; 92 % of control under setting [11]; 92 % of control under setting [12].
